# Reference: publication PMC6803859, “Structural Basis for the Regulation of PPARγ Activity by Imatinib” (Molecules, 2019)
# Changes are numbered by the printed parent chain. pKd: −log10 of the molar value.
# Assays:
# PPARγ WT LBD = target: T1, PPARγ WT LBD (Homo sapiens, UniProt P37231); assay: SPR (Biacore T200, immobilized LBD); type: binding
# T1 construct: gene PPARG; LBD, residues 195–477 in PPARγ1 numbering
# T1 sequence (P37231 223-505): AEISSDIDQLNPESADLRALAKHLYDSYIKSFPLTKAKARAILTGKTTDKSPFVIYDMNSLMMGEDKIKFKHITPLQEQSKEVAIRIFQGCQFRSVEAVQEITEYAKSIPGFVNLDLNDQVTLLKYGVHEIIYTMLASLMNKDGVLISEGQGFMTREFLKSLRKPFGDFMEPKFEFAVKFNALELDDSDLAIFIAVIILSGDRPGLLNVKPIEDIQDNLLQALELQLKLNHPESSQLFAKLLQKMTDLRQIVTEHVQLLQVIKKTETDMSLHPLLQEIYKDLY
# PPARγ R288A mutant LBD = target: T2, PPARγ R288A mutant LBD (Homo sapiens, UniProt P37231, R316A); assay: ([…] Å) and SPR (Biacore T200); type: binding
# T2 construct: gene PPARG; LBD, residues 195–477 in PPARγ1 numbering
# T2 sequence (P37231 223-505 R316A): T1 sequence (P37231 223-505) with R94A
smiles,measurement,setting,value
Cc1ccc(NC(=O)c2ccc(CN3CCN(C)CC3)cc2)cc1Nc1nccc(-c2cccnc2)n1 [imatinib],pKd,PPARγ WT LBD,6.64
same,pKd,PPARγ R288A mutant LBD,6.82
